Source: patent publication US10952431B2, “Releasable encapsulation compositions” (Battelle Memorial Institute, priority 2016, dated 2021)

Assay: Particle size distribution before and after encapsulation
Assay type: physicochemical
Conditions: FIG. 6A, non-encapsulated
From the text: FIGS. 6A-6B show charts of the particle size distribution of TAED. […] Upon encapsulation, approximately 50% of the particles are distributed in the particle size range of 1 and 2 microns. This information also confirms the TAED is coated with the nonionic amphiphilic graft copolymer (PLMA-g-PEG).

For `CC(=O)N(CCN(C(C)=O)C(C)=O)C(C)=O` [TAED, tetraacetylethylene-diamine], the “particle size (majority of particles)” value was 20-30 microns.
